Test results as given in PMC6751184, “Heme and hemoglobin utilization by Mycobacterium tuberculosis” (Nature Communications, 2019).

Target: DppA (Rv3666c), substrate-binding protein of the Dpp transporter (Mycobacterium tuberculosis, UniProt I6X811, W442A)

C=CC1=C(C)C2=Cc3c(C=C)c(C)c4[n]3[Fe]([Cl])[n]3c(c(C)c(CCC(=O)O)c3=CC3=NC(=C4)C(C)=C3CCC(=O)O)=CC1=N2 [hemin]
SPR; binds but dissociates quickly, reduced affinity: Surface plasmon resonance showed that heme bound to the DppAW442A protein but dissociated quickly
